# How the values were obtained:
# hIL17 = assay: IL-17 release from differentiated primary human T-cells (IL-17A HTRF assay); assay type: cell-based; settings: inhibition of IL-17A levels; primary human CD4+ T cells differentiated into Th17 cells, 46-hour incubation
# Experimental: D. IL-17 Release from Differentiated Primary Human T-Cells and Cell Viability
# Primary human cryopreserved CD4+ T Cells (Lonza, donor #0000402103) were plated in Lymphocyte Growth Medium-3 (LGM-3, Lonza) according to the manufacturer's recommendations, and allowed to recover for approximately 3 hours at 37° C. with 5% CO2 in a humidified atmosphere. After the recovery step, cells were collected by centrifugation and re-plated in 96-well plates at a density of ˜140,000 cells per well in LGM-3 medium that contained DMSO (vehicle) or test compound (2-500 nM or 4-1000 nM concentration range). Triplicate wells were plated for each test condition. DMSO (final concentration ≤0.1%) was used as the vehicle. Immediately after plating, CD4+ T cells were activated by adding Dynabeads Human T-Activator CD3/CD28 (Life Technologies; bead-to-cell ratio of 1:2.5) and differentiated into Th17 cells by adding a mixture of the following cytokines: transforming growth factor-β (TGF-β, 5 ng/mL), IL-6 (20 ng/mL), IL-23 (20 ng/mL), and […] (10 ng/mL). Undifferentiated control cells received only cytokine IL-2 (50 ng/mL). All human recombinant cytokines were purchased from R&D Systems. Following a 46-hour incubation at 37° C. with 5% CO2 in a humidified atmosphere, the plates were centrifuged for 3 minutes at 250×g, and half of the supernatant was transferred to a new plate to be used in the IL-17A assay (see below). Cell viability was assessed in the original plate using the CyQuant Direct Assay (Life Technologies). CyQuant values from test compound samples were normalized to those from DMSO-treated samples. The concentration of IL-17A in the supernatant was measured using the Homogeneous Time-Resolved Fluorescence (HTRF) assay (Cisbio Bioassays) according to the manufacturer's protocol. The assay was performed at room temperature in low volume, solid white 384-well plates (Greiner Bio-One). Samples and standards (serially-diluted human recombinant IL-17A (0 to 5,000 pg/mL concentration range; Cisbio Bioassays) were incubated with the anti-human IL-17A antibody conjugate for 16 hours and fluorescence was measured using a Pherastar FS microplate reader (BMG Labtech) in the HTRF mode (excitation at 337 nm and emission at 665 nm and 620 nm). IL-17A concentrations were assessed in duplicate aliquots of supernatant from each well resulting in a total of six readings per test condition. The 665 nm/620 nm signal ratio was calculated and the concentration of IL-17A in each sample was determined by interpolation from the standard curve. IL-17A values from test compound samples were normalized to those from DMSO-treated samples. Data were analyzed using GraphPad Prism version 6.00 for Windows (GraphPad Software, La Jolla Calif. USA). A non-linear regression analysis with log (inhibitor) vs. normalized response using a variable slope was applied to fit the data and determine the IC50 values for inhibition of IL-17A levels and cell viability.
# human RORγ = biological target: T1, human RORγ (Homo sapiens, UniProt P51449); assay: RORγ assay (GAL4-RORγ hybrid luciferase reporter, inverse-agonist activity); assay type: cell-based; settings: GAL4-RORγ hybrid reporter cells, 23 hours
# T1 sequence (P51449 269-508 limits assumed): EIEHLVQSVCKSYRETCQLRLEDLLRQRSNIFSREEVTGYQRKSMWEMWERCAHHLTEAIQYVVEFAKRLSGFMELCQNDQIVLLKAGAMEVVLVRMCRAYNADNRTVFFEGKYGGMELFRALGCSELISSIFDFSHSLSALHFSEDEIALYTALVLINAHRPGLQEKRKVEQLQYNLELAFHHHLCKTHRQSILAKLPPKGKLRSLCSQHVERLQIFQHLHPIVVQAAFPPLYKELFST
# From the text: C. RORγ Assay and Cell Viability
# The RORγ assay system was purchased from Indigo Biosciences. This nuclear receptor assay utilizes a human cell line that has been engineered to express a hybrid form of the Human RAR-related Orphan Receptor Gamma (RORγ) at high levels. The N-terminal DNA binding domain (DBD) of the native RORγ receptor was substituted with the yeast GAL4-DBD to generate the GAL4-RORγ hybrid nuclear receptor. The reporter cell line is transfected with a plasmid that encodes the beetle luciferase gene under the control of the GAL4 upstream activating sequence (UAS). GAL4 binds to the UAS and increases transcription of downstream target genes. […] To assess the RORγ inverse-agonist activity of the test compounds, reporter cells were plated in white 96-well plates in triplicate and were treated with DMSO (vehicle) or test compound (concentration ranges of 0.4-200 nM or 2-1000 nM) at 37° C. with 5% CO2 in a humidified atmosphere for 23 hours. After this incubation, luciferin was added to the wells and luciferase activity was determined by measuring the luminescence signal using a BMG Pherastar microplate reader. Viability was determined using the Live Cell Multiplex Assay (Indigo Biosciences). Values from test compound samples were normalized to those from DMSO-treated samples. Data were analyzed using GraphPad Prism version 6.00 for Windows (GraphPad Software, La Jolla Calif. USA). A non-linear regression analysis with log (inhibitor) vs. normalized response using a variable slope was applied to fit the data and determine the IC50 values for inhibition of RORγ and cell viability.
# [1] = tested on: IFNγ-induced Nitric Oxide production; assay: Nitric oxide production assay in RAW 264.7 mouse macrophages; assay type: cell-based; settings: RAW264.7, suppression of IFNγ-induced NO production normalized to cell viability (WST-1), RAW 264.7, 24 hours IFNγ
# Experimental: A. Nitric Oxide Production Assay and Cell Viability
# RAW 264.7 mouse macrophages were plated in 96-well plates at a density of 30,000 cells per well in triplicate in RPMI 1640+0.5% FBS and incubated at 37° C. with 5% CO2 in a humidified atmosphere. The next day, cells were pre-treated with DMSO (vehicle) or test compound (concentration ranges of 0.4-200 nM or 2-1000 nM) for 2 hours and then treated with recombinant mouse IFNγ (R&D Systems) for 24 hours. Nitric oxide concentration in media was determined using the Griess reagent system (Promega). Cell viability was determined using WST-1 reagent (Roche). Values from test compound samples were normalized to those from DMSO/IFNγ-treated samples. IC50 values were determined based on the suppression of IFNγ-induced Nitric Oxide production normalized to cell viability.
# NRF2 = assay: AREc32 luciferase reporter assay; assay type: cell-based, human; settings: EC2×: concentration required to increase GST ARE Luciferase reporter activity by 2-fold; AREc32 cells, 19 hours
# From the text: B. AREc32 Luciferase Reporter Assay
# The AREc32 luciferase reporter assay allows for quantitative assessment of the endogenous activity of the Nrf2 transcription factor in cultured mammalian cells. AREc32 cells are derived from MCF-7 human breast carcinoma cells that were stably transfected with a reporter construct that contains the firefly luciferase gene located downstream of eight copies of the rat GSTA2 antioxidant response element (ARE) sequence (Wang et al., 2006; CXR Biosciences). Active NRF2 binds to the ARE sequences and increases expression of the firefly luciferase gene. To assess the NRF2-activating potential of the test compounds, AREc32 cells were plated in black 96-well plates at a density of 20,000 cells per well in triplicate in DMEM+10% FBS+0.8 mg/mL Geneticin and incubated at 37° C. with 5% CO2 in a humidified atmosphere. The next day, cells were treated with DMSO (vehicle) or test compound (concentration ranges of 0.4-200 nM or 2-1000 nM) for 19 hours. Luciferase activity was determined using the ONE-Glo Luciferase assay (Promega). The luminescence signal was measured on a BMG Pherastar microplate reader. The mean luminescence value from test compound-treated wells was normalized to that from DMSO-treated wells and was represented as fold-induction. Data were analyzed using GraphPad Prism version 6.00 for Windows, GraphPad Software, La Jolla Calif. USA. A non-linear regression curve with log (agonist) vs. response using a variable slope was used to fit the data. Where applicable, a maximum threshold value of 50-fold over DMSO was set. EC2× values were interpolated from the curve. EC2× corresponds to the concentration of test compound required to increase GST ARE Luciferase reporter activity by 2-fold.
IC50 (hIL17),IC50 (human RORγ),Structure (SMILES),IC50 [1],EC2x: concentration giving 2-fold induction of ARE luciferase reporter (NRF2)
18 nM,115 nM,COC(=O)[C@]12CCC(C)(C)C[C@H]1[C@H]1C(=O)C=C3[C@@]4(C)C=C(C#N)C(=O)[C@@](C)(O)[C@@H]4CC[C@@]3(C)[C@]1(C)CC2 [Compound T5],22.6 nM,56 nM
65 nM,206 nM,"COC(=O)[C@]12CCC(C)(C)C[C@H]1[C@H]1C(=O)C=C3[C@@]4(C)C=C(C#N)C(=O)[C@@](C)(C(N)=O)[C@@H]4CC[C@@]3(C)[C@]1(C)CC2 [Compound T15, methyl (4aS,6aR,6bS,8aR,9S,12aS,14aR,14bS)-9-carbamoyl-11-cyano-2,2,6a,6b,9,12a-hexamethyl-10,14-dioxo-1,3,4,5,6,6a,6b,7,8,8a,9,10,12a,14,14a,14b-hexadecahydropicene-4a(2H)-carboxylate]",714 nM,612 nM
28 nM,118 nM,"CC(=O)OC[C@]1(C)C(=O)C(C#N)=C[C@]2(C)C3=CC(=O)[C@]45OC(=O)[C@@]6(CCC(C)(C)C[C@H]64)CC[C@@]5(C)[C@]3(C)CC[C@H]21 [Compound T32, ((4R,4aR,6aR,6bS,8aS,12aR,12bS,14bS)-2-cyano-4,6a,6b, 11,11,14b-hexamethyl-3,13,16-trioxo-4,4a,5,6,6a,6b,7,8,10,11,12,12a,13,14b-tetradecahydro-3H,9H-12b,8a-(epoxymethano)picen-4-yl)methyl acetate]",115 nM,243 nM
27 nM,251 nM,"COCOC[C@]1(C)C(=O)C(C#N)=C[C@]2(C)C3=CC(=O)[C@@H]4[C@@H]5CC(C)(C)CC[C@]5(C(=O)OC)CC[C@@]4(C)[C@]3(C)CC[C@H]21 [Compound T7, methyl (4aS,6aR,6bS,8aR,9R,12aS,14aR,14bS)-11-cyano-9-((methoxymethoxy)methyl)-2,2,6a,6b,9,12a-hexamethyl-10,14-dioxo-1,3,4,5,6,6a,6b,7,8,8a,9,10,12a,14,14a,14b-hexadecahydropicene-4a(2H)-carboxylate]",95.1 nM,270 nM
15 nM,159 nM,"CC1(C)CC[C@@]23CC[C@@]4(C)[C@]5(C)CC[C@H]6C(C)(C)C(=O)C(C#N)=C[C@]6(C)C5=CC(=O)[C@]4(OC2=O)[C@@H]3C1 [Comparison Compound #6, reference compound]",0.7 nM,2 nM
101 nM,389 nM,"Cc1nnc([C@]23CCC(C)(C)C[C@H]2[C@H]2C(=O)C=C4[C@@]5(C)C=C(C#N)C(=O)[C@@](C)(CO)[C@@H]5CC[C@@]4(C)[C@]2(C)CC3)o1 [Compound T42, (4R,4aR,6aS,6bR,8aS,12aS,12bR,14bS)-4-(hydroxymethyl)-4,6a,6b, 11,11,14b-hexamethyl-8a-(5-methyl-1,3,4-oxadiazol-2-yl)-3,13-dioxo-3,4,4a,5,6,6a,6b,7,8,8a,9,10,11,12,12a,12b,13,14b-octadecahydropicene-2-carbonitrile]",10.4 nM,97 nM
38 nM,177 nM,"C[C@@H]1C(=O)C(C#N)=C[C@]2(C)C3=CC(=O)[C@@H]4[C@@H]5CC(C)(C)CC[C@]5(NC(=O)C(C)(F)F)CC[C@@]4(C)[C@]3(C)CC[C@@H]12 [Comparison Compound #4, reference compound]",0.6 nM,11 nM
67 nM,–,"CCNC(=O)[C@]12CCC(C)(C)C[C@H]1[C@H]1C(=O)C=C3[C@@]4(C)C=C(C#N)C(=O)[C@@](C)(CO)[C@@H]4CC[C@@]3(C)[C@]1(C)CC2 [Compound T25, (4aS,6aR,6bS,8aR,9R,12aS,14aR,14bS)-11-cyano-N-ethyl-9-(hydroxymethyl)-2,2,6a,6b,9,12a-hexamethyl-10,14-dioxo-1,3,4,5,6,6a,6b,7,8,8a,9,10,12a,14,14a,14b-hexadecahydropicene-4a(2H)-carboxamide]",16 nM,131 nM
126 nM,–,"CN(C)C(=O)[C@]1(C)C(=O)C(C#N)=C[C@]2(C)C3=CC(=O)[C@]45OC(=O)[C@@]6(CCC(C)(C)C[C@H]64)CC[C@@]5(C)[C@]3(C)CC[C@@H]12 [Compound T36, (4S,4aR,6aR,6bS,8aS,12aR,12bS,14bS)-2-cyano-N,N,4,6a,6b, 11,11,14b-octamethyl-3,13,16-trioxo-4,4a,5,6,6a,6b,7,8,10,11,12,12a,13,14b-tetradecahydro-3H,9H-12b,8a-(epoxymethano)picene-4-carboxamide]",> 1000 nM,>1000 nM
